Experimental findings from patent US8716303B2, “N-(hetero)aryl-pyrrolidine derivatives of pyrazol-4-yl-pyrrolo[2,3-d]pyrimidines and pyrrol-3-yl-pyrrolo[2,3-d]pyrimidines as janus kinase inhibitors” (Incyte Corporation, priority 2009, dated 2014) are described below.

The target of assay [1] is T1, human JAK1 (a.a. 837-1142) (Homo sapiens, UniProt P23458).
T1 construct: human JAK1 (a.a. 837-1142); His tag (N); made in house; host or cells: insect cells (baculovirus)
The experiment in a line: In vitro JAK kinase assay (HTRF, phosphorylation of a biotinylated peptide), JAK1. In kind it is biochemical. Put shortly:
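IC50s come from HTRF detection (Eu-Py20, SA-APC, 40 min binding) after 1 h RT reactions with 500 nM biotinylated peptide in Tris pH 7.8 buffer. ATP either 1 mM or Km-level, 90 μM for JAK1 and 30 μM for JAK2; enzymes are baculovirus-expressed His-tagged catalytic domains (JAK1 837-1142, JAK2 828-1132).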

The target in the next assay is T2, Jak2 (a.a. 828-1132) (Homo sapiens, UniProt O60674).
T2 construct: Jak2 (a.a. 828-1132); His tag (N); made in house; host or cells: insect cells (baculovirus)
T2 sequence (O60674 828-1132): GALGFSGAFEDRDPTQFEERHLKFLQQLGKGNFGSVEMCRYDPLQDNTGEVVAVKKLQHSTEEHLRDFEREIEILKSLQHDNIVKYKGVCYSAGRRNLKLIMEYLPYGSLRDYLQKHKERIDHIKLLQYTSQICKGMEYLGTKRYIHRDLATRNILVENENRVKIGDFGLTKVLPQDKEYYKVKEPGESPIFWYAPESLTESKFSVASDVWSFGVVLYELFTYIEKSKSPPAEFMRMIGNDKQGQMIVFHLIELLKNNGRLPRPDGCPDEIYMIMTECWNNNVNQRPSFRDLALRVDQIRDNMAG
The experiment in a line: In vitro JAK kinase assay (HTRF, phosphorylation of a biotinylated peptide), JAK2, reported as JAK2/JAK1 ratio. In kind it is biochemical. On the technique in general: TR-FRET usually uses a lanthanide donor and a delayed reading to cut background.

Where [2] appears, read: Assay Conditions Km (ATP 90 μM for Jak1).
Where [3] appears, read: Assay Conditions Km (ATP 90 μM for Jak1, 30 μM for Jak2).

pIC50: −log10 of the molar value. Where a name gives a salt, the structure may show the parent alone.

T1 sequence (P23458 849-1154): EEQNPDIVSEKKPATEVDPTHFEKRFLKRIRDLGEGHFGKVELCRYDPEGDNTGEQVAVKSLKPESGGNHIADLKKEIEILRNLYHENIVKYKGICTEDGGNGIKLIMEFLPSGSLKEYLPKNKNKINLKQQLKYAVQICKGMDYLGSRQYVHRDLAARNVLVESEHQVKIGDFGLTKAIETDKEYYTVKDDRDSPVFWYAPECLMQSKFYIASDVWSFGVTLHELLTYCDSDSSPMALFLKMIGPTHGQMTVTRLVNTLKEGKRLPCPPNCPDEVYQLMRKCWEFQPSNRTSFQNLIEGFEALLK

With `CN(C)S(=O)(=O)Nc1nccc(N2CCC(C(CC#N)n3cc(-c4ncnc5[nH]ccc45)cn3)C2)n1` (single isomer, unassigned) [Example 151, N-[4-(3-{2-cyano-1-[4-(7H-pyrrolo[2,3-d]pyrimidin-4-yl)-1H-pyrazol-1-yl]ethyl}pyrrolidin-1-yl)pyrimidin-2-yl]-N,N-dimethylsulfonamide], the pIC50 in assay [1] (Assay Conditions 1 mM ATP) is over 7.30. Besides, the “JAK2/JAK1 IC50 ratio” value on Jak2 (a.a. 828-1132) (Assay Conditions 1 mM ATP) turned out to be 12.5.

Consider `N#CCC(C1CCN(c2ncc3ccsc3c2C#N)C1)n1cc(-c2ncnc3[nH]ccc23)cn1` (single isomer, unassigned) [Example 175, 6-(3-{2-cyano-1-[4-(7H-pyrrolo[2,3-d]pyrimidin-4-yl)-1H-pyrazol-1-yl]ethyl}pyrrolidin-1-yl)thieno[3,2-c]pyridine-7-carbonitrile], for which the pIC50 in assay [1] (Assay Conditions 1 mM ATP) is over 7.30. Also, the “JAK2/JAK1 IC50 ratio” value on Jak2 (a.a. 828-1132) (Assay Conditions 1 mM ATP) is listed as 15.4.

In assay [1] (Assay Conditions 1 mM ATP), `CSc1nc(N2CC[C@H]([C@H](CC#N)n3cc(-c4ncnc5[nH]ccc45)cn3)C2)c(F)cc1F` [Example 129, (3S)-3-{(3S)-1-[3,5-Difluoro-6-(methylthio)pyridin-2-yl]pyrrolidin-3-yl}-3-[4-(7H-pyrrolo[2,3-d]pyrimidin-4-yl)-1H-pyrazol-1-yl]propanenitrile] had a pIC50 of over 7.30. Besides, on Jak2 (a.a. 828-1132) (Assay Conditions 1 mM ATP), the “JAK2/JAK1 IC50 ratio” value came out at 5.9.

With `N#CCC(C1CCN(c2ccnc(S)n2)C1)n1cc(-c2ncnc3[nH]ccc23)cn1` (single isomer, unassigned) [Example 150, 3-[1-(2-mercaptopyrimidin-4-yl)pyrrolidin-3-yl]-3-[4-(7H-pyrrolo[2,3-d]pyrimidin-4-yl)-1H-pyrazol-1-yl]propanenitrile], the pIC50 in assay [1] (Assay Conditions 1 mM ATP) was over 7.30. Also, the “JAK2/JAK1 IC50 ratio” value on Jak2 (a.a. 828-1132) (Assay Conditions 1 mM ATP) amounted to 3.2.

Regarding `CSc1cccc(N2CCC(C(CC#N)n3cc(-c4ncnc5[nH]ccc45)cn3)C2)c1C#N` (racemic) [Example 40, ±2-(3-{2-cyano-1-[4-(7H-pyrrolo[2,3-d]pyrimidin-4-yl)-1H-pyrazol-1-yl]ethyl}pyrrolidin-1-yl)-6-(methylthio)benzonitrile], the pIC50 in assay [1] (Assay Conditions 1 mM ATP) is over 7.30. Besides, at Jak2 (a.a. 828-1132) (Assay Conditions 1 mM ATP), the “JAK2/JAK1 IC50 ratio” value was found to be 7.1.

In the case of `N#CCC(C1CCN(c2nc3c(O)cccc3o2)C1)n1cc(-c2ncnc3[nH]ccc23)cn1` (single isomer, unassigned) [Example 165, 3-[1-(4-hydroxy-1,3-benzoxazol-2-yl)pyrrolidin-3-yl]-3-[4-(7H-pyrrolo[2,3-d]pyrimidin-4-yl)-1H-pyrazol-1-yl]propanenitrile], the pIC50 in assay [1] (Assay Conditions 1 mM ATP) is over 7.30. The “JAK2/JAK1 IC50 ratio” value on Jak2 (a.a. 828-1132) (Assay Conditions 1 mM ATP) came out at 7.1.

For the molecule `N#CCC(C1CCN(c2ccc3cccc(Cl)c3n2)C1)n1cc(-c2ncnc3[nH]ccc23)cn1` (racemic) [Example 42, ±3-[1-(8-chloroquinolin-2-yl)pyrrolidin-3-yl]-3-[4-(7H-pyrrolo[2,3-d]pyrimidin-4-yl)-1H-pyrazol-1-yl]propanenitrile], the pIC50 in assay [1] (setting [2]) was over 7.30. Besides, the “JAK2/JAK1 IC50 ratio” value on Jak2 (a.a. 828-1132) (setting [3]) came to 6.0.

`N#CCC(C1CCN(c2nc3cccc(O)c3o2)C1)n1cc(-c2ncnc3[nH]ccc23)cn1` (single isomer, unassigned) [Example 161, 3-[1-(7-hydroxy-1,3-benzoxazol-2-yl)pyrrolidin-3-yl]-3-[4-(7H-pyrrolo[2,3-d]pyrimidin-4-yl)-1H-pyrazol-1-yl]propanenitrile] gave a pIC50 in assay [1] (Assay Conditions 1 mM ATP) of over 7.30. For the same molecule, on Jak2 (a.a. 828-1132) (Assay Conditions 1 mM ATP), the “JAK2/JAK1 IC50 ratio” value stood at 24.7.

`N#CCC(C1CCN(c2nc3ccccc3o2)C1)n1cc(-c2ncnc3[nH]ccc23)cn1` (single isomer, unassigned) [9, Step 3a] showed a pIC50 in assay [1] (setting [2]) of over 7.30. For the same molecule, the “JAK2/JAK1 IC50 ratio” value at Jak2 (a.a. 828-1132) (setting [3]) was determined as 1.9.

With `N#CCC(C1CCN(c2nc3cc(F)cnc3o2)C1)n1cc(-c2ncnc3[nH]ccc23)cn1` (single isomer, unassigned) [Example 15, 3-[1-(6-fluoro[1,3]oxazolo[5,4-b]pyridin-2-yl)pyrrolidin-3-yl]-3-[4-(7H-pyrrolo[2,3-d]pyrimidin-4-yl)-1H-pyrazol-1-yl]propanenitrile], in assay [1] (setting [2]), the pIC50 was over 7.30. At Jak2 (a.a. 828-1132) (setting [3]), the “JAK2/JAK1 IC50 ratio” value is given as 6.8.

Take `O=S1(=O)CCc2ccc(N3CC[C@H](C(CF)n4cc(-c5ncnc6[nH]ccc56)cn4)C3)nc21` (stereo partly drawn) [Example 119, 4-(1-{1-[(3S)-1-(1,1-dioxido-2,3-dihydrothieno[2,3-b]pyridin-6-yl)pyrrolidin-3-yl]-2-fluoroethyl}-1H-pyrazol-4-yl)-7H-pyrrolo[2,3-d]pyrimidine trifluoroacetate]: in assay [1] (Assay Conditions 1 mM ATP), the pIC50 is over 7.30. On Jak2 (a.a. 828-1132) (Assay Conditions 1 mM ATP), the “JAK2/JAK1 IC50 ratio” value was 7.6.

`N#CC[C@@H]([C@H]1CCN(c2cccc(F)c2C#N)C1)n1cc(-c2ncnc3[nH]ccc23)cn1` [Example 54, 2-((3S)-3-{(1S)-2-cyano-1-[4-(7H-pyrrolo[2,3-d]pyrimidin-4-yl)-1H pyrazol-1-yl]ethyl}pyrrolidin-1-yl) 6-fluorobenzonitrile trifluoroacetate salt]: in assay [1] (Assay Conditions 1 mM ATP), the pIC50 was over 7.30. Also, the “JAK2/JAK1 IC50 ratio” value on Jak2 (a.a. 828-1132) (Assay Conditions 1 mM ATP) was found to be 4.6.

The molecule `N#CCC(C1CCN(c2nccc(Cl)n2)C1)n1cc(-c2ncnc3[nH]ccc23)cn1` (single isomer, unassigned) [Example 4b, 3-[1-(4-chloropyrimidin-2-yl)pyrrolidin-3-yl]-3-[4-(7H-pyrrolo[2,3-d]pyrimidin-4-yl)-1H-pyrazol-1-yl]propanenitrile] had a pIC50 in assay [1] (setting [2]) of over 7.30. Besides, the “JAK2/JAK1 IC50 ratio” value on Jak2 (a.a. 828-1132) (setting [3]) stood at 3.7.

For the molecule `N#CC[C@@H]([C@H]1CCN(c2scc(Br)c2C#N)C1)n1cc(-c2ncnc3[nH]ccc23)cn1` [Example 77, 4-bromo-2-((3S)-3-{(1S)-2-cyano-1-[4-(7H-pyrrolo[2,3-d]pyrimidin-4-yl)-1H-pyrazol-1-yl]ethyl}pyrrolidin-1-yl)thiophene-3-carbonitrile], the pIC50 in assay [1] (Assay Conditions 1 mM ATP) is over 7.30. Further, at Jak2 (a.a. 828-1132) (Assay Conditions 1 mM ATP), the “JAK2/JAK1 IC50 ratio” value is given as 39.1.

In assay [1] (Assay Conditions 1 mM ATP), `N#CCC(C1CCN(c2ncc3c(c2C#N)SCC3)C1)n1ccc(-c2ncnc3[nH]ccc23)c1` (single isomer, unassigned) [Example 174-2, 6-(3-{2-cyano-1-[3-(7H-pyrrolo[2,3-d]pyrimidin-4-yl)-1H-pyrrol-1-yl]ethyl}pyrrolidin-1-yl)-2,3-dihydrothieno[3,2-c]pyridine-7-carbonitrile] had a negative-log IC50 (pIC50) of over 7.30. Also, the “JAK2/JAK1 IC50 ratio” value on Jak2 (a.a. 828-1132) (Assay Conditions 1 mM ATP) is on record as 11.1.

Turning to `CS(=O)(=O)c1cc(N2CCC(C(CC#N)n3cc(-c4ncnc5[nH]ccc45)cn3)C2)ccn1` (single isomer, unassigned) [Example 27, 3-{1-[2-(methylsulfonyl)pyridin-4-yl]pyrrolidin-3-yl}-3-[4-(7H-pyrrolo[2,3-d]pyrimidin-4-yl)-1H-pyrazol-1-yl]propanenitrile], the pIC50 in assay [1] (Assay Conditions 1 mM ATP) was over 7.30. The “JAK2/JAK1 IC50 ratio” value at Jak2 (a.a. 828-1132) (Assay Conditions 1 mM ATP) was found to be 14.

`N#CC[C@@H]([C@H]1CCN(c2ncc(C(F)F)nc2C#N)C1)n1cc(-c2ncnc3[nH]ccc23)cn1` [Example 138, 3-((3S)-3-{(1S)-2-cyano-1-[4-(7H-pyrrolo[2,3-d]pyrimidin-4-yl)-1H-pyrazol-1-yl]ethyl}pyrrolidin-1-yl)-6-(difluoromethyl)pyrazine-2-carbonitrile trifluoroacetate] showed a pIC50 in assay [1] (Assay Conditions 1 mM ATP) of over 7.30. The “JAK2/JAK1 IC50 ratio” value at Jak2 (a.a. 828-1132) (Assay Conditions 1 mM ATP) is reported as 17.5.

On to `N#Cc1ncccc1N1CC[C@H](C(CF)n2cc(-c3ncnc4[nH]ccc34)cn2)C1` (stereo partly drawn) [Example 117, 3-((3S)-3-{2-fluoro-1-[4-(7H-pyrrolo[2,3-d]pyrimidin-4-yl)-1H-pyrazol-1-yl]ethyl}pyrrolidin-1-yl)pyridine-2-carbonitrile trifluoroacetate], for which the pIC50 in assay [1] (Assay Conditions 1 mM ATP) is over 7.30. Besides, the “JAK2/JAK1 IC50 ratio” value at Jak2 (a.a. 828-1132) (Assay Conditions 1 mM ATP) stood at 3.7.

In the case of `N#CC[C@@H]([C@H]1CCN(c2c(F)cc(F)c(F)c2C#N)C1)n1cc(-c2ncnc3[nH]ccc23)cn1` [Example 61, 2-((3S)-3-{(1S)-2-cyano-1-[4-(7H-pyrrolo[2,3-d]pyrimidin-4-yl)-1H-pyrazol-1-yl]ethyl}pyrrolidin-1-yl)-3,5,6-trifluorobenzonitrile trifluoroacetate salt], in assay [1] (Assay Conditions 1 mM ATP), the pIC50 was over 7.30. Further, the “JAK2/JAK1 IC50 ratio” value on Jak2 (a.a. 828-1132) (Assay Conditions 1 mM ATP) amounted to 6.4.

In assay [1] (setting [2]), `N#CCC(C1CCN(c2nc3ccccc3o2)C1)n1cc(-c2ncnc3[nH]ccc23)cn1` (single isomer, unassigned) [9, Step 3b] had a pIC50 of over 7.30. Moreover, the “JAK2/JAK1 IC50 ratio” value at Jak2 (a.a. 828-1132) (setting [3]) was determined as 6.3.

Consider `N#CCC(C1CCN(c2ccc3cc[nH]c3n2)C1)n1cc(-c2ncnc3[nH]ccc23)cn1` (stereo not drawn) [Example 73, 3-(1-(1H-pyrrolo[2,3-b]pyridin-6-yl)pyrrolidin-3-yl)-3-(4-(7H-pyrrolo[2,3-d]pyrimidin-4-yl)-1H-pyrazol-1-yl)propanenitrile trifluoroacetate], for which the pIC50 in assay [1] (Assay Conditions 1 mM ATP) was over 7.30. Further, the “JAK2/JAK1 IC50 ratio” value on Jak2 (a.a. 828-1132) (Assay Conditions 1 mM ATP) came to 1.7.

In turn, `CN(C)c1ccnc(N2CCC(C(CC#N)n3cc(-c4ncnc5[nH]ccc45)cn3)C2)n1` (stereo not drawn) [Example 6, 3-{1-[4-(dimethylamino)pyrimidin-2-yl]pyrrolidin-3-yl}-3-[4-(7H-pyrrolo[2,3-d]pyrimidin-4-yl)-1H-pyrazol-1-yl]propanenitrile] had a pIC50 in assay [1] (setting [2]) of over 7.30. Besides, the “JAK2/JAK1 IC50 ratio” value on Jak2 (a.a. 828-1132) (setting [3]) is over 5.

Consider `N#CCC(C1CCN(c2scnc2C#N)C1)n1ccc(-c2ncnc3[nH]ccc23)c1` (racemic) [Example 149-2, 5-(3-{2-cyano-1-[3-(7H-pyrrolo[2,3-d]pyrimidin-4-yl)-1H-pyrrol-1-yl]ethyl}pyrrolidin-1-yl)-1,3-thiazole-4-carbonitrile], for which the pIC50 in assay [1] (Assay Conditions 1 mM ATP) was over 7.30. Further, the “JAK2/JAK1 IC50 ratio” value on Jak2 (a.a. 828-1132) (Assay Conditions 1 mM ATP) came to 4.5.

On to `N#CCC(C1CCN(c2nc3cccnc3o2)C1)n1ccc(-c2ncnc3[nH]ccc23)c1` (single isomer, unassigned) [32, Step 2a, enantiomer 2], for which, in assay [1] (setting [2]), the pIC50 was over 7.30. Moreover, at Jak2 (a.a. 828-1132) (setting [3]), the “JAK2/JAK1 IC50 ratio” value amounted to 5.7.

One may read the pIC50 as the IC50 on a negative log10 scale, so that one unit is a factor of ten. A higher pIC50 goes with a low IC50.
